Laboratory results from PubChem BioAssay AID226 (DTP/NCI, 2004).
Values joined by “and” are separate entries in the source; they are usually repeats but may differ in a detail not shown here. Equal entries are not always repeated. Toxic doses and inconclusive results are not listed.

Tested on: B6C3F1 mice, intracerebral ependymoblastoma, median survival T/C
Test: NCI In Vivo Anticancer Drug Screen. Data for tumor model Ependymoblastoma (intracerebral) in B6C3F1 mice
Conditions: endpoint: median survival time, higher = longer survival
Experimental: The antitumor activity of compounds was measured in mice bearing transplantable tumors. Survival or tumor size were measured and the results are expressed as the measurement made in the treated group (T) divided by the measurement made in the vehicle treated control group (C). The tumor model used in this assay is Ependymoblastoma (intracerebral) in B6C3F1 mice

[1] = dose: 8.0 mg/kg/injection, schedule: Q01DX005 (ip), vehicle: Klucel (hydroxypropylcellulose) (HPC)
[2] = dose: 64.0 mg/kg/injection, schedule: Q01DX005 (ip), vehicle: Klucel (hydroxypropylcellulose) (HPC)
[3] = dose: 128.0 mg/kg/injection, schedule: Q01DX005 (ip), vehicle: Klucel (hydroxypropylcellulose) (HPC)
[4] = dose: 256.0 mg/kg/injection, schedule: Q01DX005 (ip), vehicle: Klucel (hydroxypropylcellulose) (HPC)
[5] = dose: 8.0 mg/kg/injection, schedule: Q01DX005 (ip), vehicle: saline with Tween-80
[6] = dose: 16.0 mg/kg/injection, schedule: Q01DX005 (ip), vehicle: saline with Tween-80
[7] = dose: 4.0 mg/kg/injection, schedule: Q01DX005 (ip), vehicle: saline with Tween-80
[8] = dose: 32.0 mg/kg/injection, schedule: Q01DX005 (ip), vehicle: saline with Tween-80

With `COc1cc([C@@H]2c3cc4c(cc3[C@@H](OC3OC5COC(C)OC5C(O)C3O)[C@H]3COC(=O)[C@H]23)OCO4)cc(OC)c1O` (some centres undefined) the T/C (dose: 0.5 mg/kg/injection, schedule: Q01DX005 (ip), vehicle: suspension in saline) was 101 % of control, the T/C (dose: 1.0 mg/kg/injection, schedule: Q01DX005 (ip), vehicle: suspension in saline) was 100 % of control and the T/C (dose: 2.0 mg/kg/injection, schedule: Q01DX005 (ip), vehicle: suspension in saline) was 110 % of control and 114 % of control. The T/C (dose: 4.0 mg/kg/injection, schedule: Q01DX005 (ip), vehicle: suspension in saline) was 112 % of control and 120 % of control and the T/C (dose: 16.0 mg/kg/injection, schedule: Q01DX005 (ip), vehicle: suspension in saline) was 102 % of control.

In the case of `CC(=O)O[C@]1(C(C)=O)CC[C@H]2[C@@H]3C[C@H](C)C4=CC(=O)CC[C@]4(C)[C@H]3CC[C@@]21C`, the T/C [1] is reported as 96 % of control and 104 % of control, the T/C (dose: 16.0 mg/kg/injection, schedule: Q01DX005 (ip), vehicle: Klucel (hydroxypropylcellulose) (HPC)) is reported as 101 % of control and 122 % of control and the T/C (dose: 32.0 mg/kg/injection, schedule: Q01DX005 (ip), vehicle: Klucel (hydroxypropylcellulose) (HPC)) is reported as 101 % of control and 112 % of control. For the same compound, the T/C [2] was 92 % of control and 97 % of control, the T/C [3] was 95 % of control and 98 % of control and the T/C [4] was 94 % of control and 97 % of control.

`O=C(O)CCCc1ccc(N(CCCl)CCCl)cc1` was tested, and the T/C (dose: 0.5 mg/kg/injection, schedule: Q01DX005 (ip), vehicle: Klucel (hydroxypropylcellulose) (HPC)) was 114 % of control, the T/C (dose: 1.0 mg/kg/injection, schedule: Q01DX005 (ip), vehicle: Klucel (hydroxypropylcellulose) (HPC)) was 114 % of control and the T/C (dose: 1.0 mg/kg/injection, schedule: Q01DX005 (ip), vehicle: saline with Tween-80) was 120 % of control. The T/C (dose: 2.0 mg/kg/injection, schedule: Q01DX001 (ip), vehicle: Klucel (hydroxypropylcellulose) (HPC)) was 103 % of control and 104 % of control (2×), the T/C (dose: 2.0 mg/kg/injection, schedule: Q01DX005 (ip), vehicle: Klucel (hydroxypropylcellulose) (HPC)) was 113 % of control and the T/C (dose: 4.0 mg/kg/injection, schedule: Q01DX001 (ip), vehicle: Klucel (hydroxypropylcellulose) (HPC)) was 97 % of control and 104 % of control and 105 % of control. The T/C (dose: 4.0 mg/kg/injection, schedule: Q01DX005 (ip), vehicle: Klucel (hydroxypropylcellulose) (HPC)) was 105 % of control, the T/C (dose: 8.0 mg/kg/injection, schedule: Q01DX001 (ip), vehicle: Klucel (hydroxypropylcellulose) (HPC)) was 100 % of control and 101 % of control and 108 % of control and the T/C [1] was 113 % of control. For the same compound, the T/C [5] was 153 % of control, the T/C (dose: 16.0 mg/kg/injection, schedule: Q01DX001 (ip), vehicle: Klucel (hydroxypropylcellulose) (HPC)) was 104 % of control and 108 % of control and 110 % of control and the T/C [6] was 180 % of control. The T/C (dose: 32.0 mg/kg/injection, schedule: Q01DX001 (ip), vehicle: Klucel (hydroxypropylcellulose) (HPC)) was 114 % of control and 117 % of control and 121 % of control.

With `CCCCC(=O)OCC1OC(n2cnc3c(=S)nc[nH]c32)C(OC(=O)CCCC)C1OC(=O)CCCC` (centres undefined) the T/C (dose: 25.0 mg/kg/injection, schedule: Q01DX005 (ip), vehicle: saline with Tween-80) was 116 % of control, the T/C (dose: 50.0 mg/kg/injection, schedule: Q01DX005 (ip), vehicle: saline with Tween-80) was 99 % of control and the T/C (dose: 100.0 mg/kg/injection, schedule: Q01DX005 (ip), vehicle: saline with Tween-80) was 103 % of control.

For `O=NN(CCCl)C(=O)NC1[C@H](O)CCC[C@@H]1O` (some centres undefined), the T/C (dose: 2.59 mg/kg/injection, schedule: Q01DX005 (ip), vehicle: Klucel (hydroxypropylcellulose) (HPC)) was 236 % of control, the T/C (dose: 4.32 mg/kg/injection, schedule: Q01DX001 (ip), vehicle: saline) was 115 % of control and the T/C (dose: 4.32 mg/kg/injection, schedule: Q01DX005 (ip), vehicle: Klucel (hydroxypropylcellulose) (HPC)) was 357 % of control. For the same compound, the T/C (dose: 4.32 mg/kg/injection, schedule: Q01DX005 (ip), vehicle: saline) was 281 % of control, the T/C (dose: 7.2 mg/kg/injection, schedule: Q01DX005 (ip), vehicle: Klucel (hydroxypropylcellulose) (HPC)) was 357 % of control and the T/C (dose: 7.2 mg/kg/injection, schedule: Q01DX005 (ip), vehicle: saline) was 281 % of control. For the same compound, the T/C (dose: 12.0 mg/kg/injection, schedule: Q01DX001 (ip), vehicle: saline) was 163 % of control, the T/C (dose: 12.0 mg/kg/injection, schedule: Q01DX005 (ip), vehicle: Klucel (hydroxypropylcellulose) (HPC)) was 88 % of control and the T/C (dose: 20.0 mg/kg/injection, schedule: Q01DX001 (ip), vehicle: saline) was 218 % of control.

In the case of `Nc1ncnc2nc[nH]c12`, the T/C [7] is reported as 106 % of control and 113 % of control, the T/C [5] is reported as 100 % of control and 114 % of control and the T/C [6] is reported as 107 % of control and 118 % of control. For the same compound, the T/C [8] was 101 % of control and 102 % of control, the T/C [2] was 108 % of control and the T/C (dose: 64.0 mg/kg/injection, schedule: Q01DX005 (ip), vehicle: saline with Tween-80) was 100 % of control and 117 % of control. The T/C [3] was 107 % of control and the T/C [4] was 96 % of control.

In the case of `O=C(NC1=C(N2CC2)C(=O)C(NC(=O)OCCO)=C(N2CC2)C1=O)OCCO`, the T/C (dose: 0.18 mg/kg/injection, schedule: Q01DX005 (ip), vehicle: saline) is reported as 106 % of control, the T/C (dose: 0.39 mg/kg/injection, schedule: Q01DX005 (ip), vehicle: saline) is reported as 98 % of control and the T/C (dose: 0.75 mg/kg/injection, schedule: Q01DX005 (ip), vehicle: saline) is reported as 102 % of control. The T/C (dose: 1.5 mg/kg/injection, schedule: Q01DX005 (ip), vehicle: saline) was 103 % of control and 108 % of control, the T/C (dose: 3.0 mg/kg/injection, schedule: Q01DX005 (ip), vehicle: saline) was 96 % of control and 115 % of control and the T/C (dose: 6.0 mg/kg/injection, schedule: Q01DX005 (ip), vehicle: saline) was 110 % of control and 113 % of control.

With `O=C1c2ccccc2C(=O)c2c(NCCNCCO)ccc(NCCNCCO)c21` the T/C (dose: 1.0 mg/kg/injection, schedule: Q04DX003 (ip), vehicle: Klucel (hydroxypropylcellulose) (HPC)) was 107 % of control, the T/C (dose: 1.0 mg/kg/injection, schedule: Q04DX003 (ip), vehicle: water) was 102 % of control and the T/C (dose: 2.0 mg/kg/injection, schedule: Q01DX005 (ip), vehicle: saline with Tween-80) was 102 % of control [middle of 4 runs]. The T/C (dose: 2.0 mg/kg/injection, schedule: Q04DX003 (ip), vehicle: Klucel (hydroxypropylcellulose) (HPC)) was 97 % of control, the T/C (dose: 2.0 mg/kg/injection, schedule: Q04DX003 (ip), vehicle: water) was 101 % of control and the T/C [7] was 101 % of control [middle of 4 runs]. The T/C (dose: 4.0 mg/kg/injection, schedule: Q04DX003 (ip), vehicle: Klucel (hydroxypropylcellulose) (HPC)) was 101 % of control, the T/C (dose: 4.0 mg/kg/injection, schedule: Q04DX003 (ip), vehicle: water) was 92 % of control and the T/C [5] was 109 % of control [middle of 4 runs]. The T/C (dose: 8.0 mg/kg/injection, schedule: Q04DX003 (ip), vehicle: Klucel (hydroxypropylcellulose) (HPC)) was 110 % of control, the T/C (dose: 8.0 mg/kg/injection, schedule: Q04DX003 (ip), vehicle: water) was 102 % of control and the T/C [6] was 113 % of control [middle of 4 runs]. The T/C (dose: 16.0 mg/kg/injection, schedule: Q04DX003 (ip), vehicle: Klucel (hydroxypropylcellulose) (HPC)) was 108 % of control, the T/C (dose: 16.0 mg/kg/injection, schedule: Q04DX003 (ip), vehicle: water) was 92 % of control and the T/C [8] was 94 % of control and 110 % of control and 116 % of control. For the same compound, the T/C (dose: 32.0 mg/kg/injection, schedule: Q04DX003 (ip), vehicle: Klucel (hydroxypropylcellulose) (HPC)) was 108 % of control, the T/C (dose: 32.0 mg/kg/injection, schedule: Q04DX003 (ip), vehicle: water) was 94 % of control and the T/C (dose: 64.0 mg/kg/injection, schedule: Q04DX003 (ip), vehicle: Klucel (hydroxypropylcellulose) (HPC)) was 97 % of control. The T/C (dose: 128.0 mg/kg/injection, schedule: Q04DX003 (ip), vehicle: Klucel (hydroxypropylcellulose) (HPC)) was 92 % of control.
